# In US12195427B2, “MASP-2 inhibitors and methods of use” (priority 2018, dated 2025):
# Molecular target: MASP-2 CCP2-SP (Homo sapiens (Human), UniProt O00187)
# Assay: MASP-2 co-crystallization, X-ray crystallography and structure analysis (H-bonds, van der Waals contacts);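 on Ligand-pharmacophore element distance, pharmacophore element C2: distance from averaged pharmacophore element to bound ligand; missing value means element absent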;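 on Ligand-pharmacophore element distance, pharmacophore element C3: distance from averaged pharmacophore element to bound ligand; missing value means element absent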;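 on Ligand-pharmacophore element distance, pharmacophore element C4: distance from averaged pharmacophore element to bound ligand; missing value means element absent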;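 on Ligand-pharmacophore element distance, pharmacophore element C5: distance from averaged pharmacophore element to bound ligand; missing value means element absent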
# Parameters: van der Waals contact distance, MASP-2 HIS 483 atom CD2 / van der Waals contact distance, MASP-2 HIS 483 atom NE2 / van der Waals contact distance, SER 654 C to compound atom / van der Waals contact distance, SER 654 O to compound atom / van der Waals contact distance, TRP 655 C to compound atom / van der Waals contact distance, MASP-2 GLY 528 atom CA / van der Waals contact distance TRP 655 atom CZ3 / van der Waals contact distance TRP 655 atom N / van der Waals contact distance TRP 655 atom CE3 / van der Waals contact distance GLY 656 atom C / van der Waals contact distance GLY 656 atom CA / van der Waals contact distance GLY 656 atom O / van der Waals contact distance, MASP-2 TYR 607 atom CD1 / van der Waals contact distance, MASP-2 PRO 606 atom O / d(C3,CA1) / d(CA1,N1)2 / d(H4,O1) / d(H4,O2) / d(O1,O2) / d(CA1,O2) / d(CA6,O1) / d(CA6,O2) / d(CA1,C5) / d(O2,H3) / d(N2,C2) / d(CA5,N2) / d(N2,C4) / d(N2,C6) / d(N2,CA3) / d(N2,O3) / d(O4,H2): unit not given beside the values
# Conditions: for Ligand-pharmacophore element distance, pharmacophore element C2 / Ligand-pharmacophore element distance, pharmacophore element C3 / Ligand-pharmacophore element distance, pharmacophore element C4 / Ligand-pharmacophore element distance, pharmacophore element C5 / Ligand-pharmacophore element distance, pharmacophore element C6 / Ligand-pharmacophore element distance, pharmacophore element C7 / Ligand-pharmacophore element distance, pharmacophore element CA1 / Ligand-pharmacophore element distance, pharmacophore element CA2 / Ligand-pharmacophore element distance, pharmacophore element CA3 / Ligand-pharmacophore element distance, pharmacophore element CA4 / Ligand-pharmacophore element distance, pharmacophore element CA5 / Ligand-pharmacophore element distance, pharmacophore element CA6: Table A4-1; for d(N2,C2) / d(N2,CA2) / d(O2,H3) / d(O2,N2): Table A5-2 pharmacophore distance, S3/S4 region
# Description: This example illustrates the preparation of recombinant MASP-2 protein, based on UniProt O00187, human mannan-binding lectin serine protease 2. Expression constructs for human MASP-2 CCP2-SP and CCP2-SP-6HIS were generated for recombinant expression in E. coli cells.
# Typically, crystallization hits were obtained by screening against […] 96-well crystallization reagent kits (GRAS6, GRAS2, Hampton Research; MORPHEUS, Molecular Dimensions; Wizard 1&2 Cryo, Rigaku Reagents) and crystal growth was inspected by optical microscopy. Crystals were used directly or further optimized for X-ray diffraction. Crystals were captured with cryogenic loops and dipped into liquid nitrogen directly or cryoprotected with a 20% glycerol in crystallization formulation before flash-cooling in liquid nitrogen.
# Thereafter crystals are transferred once or twice for soaking within the crystallization solution containing the MASP-2 inhibitor.
# Crystals were diffracted with synchrotron X-rays of […] and X-ray diffraction datasets were collected at beamlines SSRL BL9-2, BL14-1, BL12-2 as well as ALS sector 5 using Dectris Pilatus and Eiger detectors. Structures were determined by molecular replacement using portions of the structure 1Q3X as search models and partially refined with Buster 2.10.2 or Refmac 5.8. […] When multiple ligand poses were observed, for instance arising from multiple molecules in the asymmetric unit or refined dual poses within the same molecule, only one pose was selected and analyzed.
# LigPlot+ calls these ‘nonbonded contacts’ or ‘hydrophobic contacts’. Despite the name, there are atom pairings that include possible H-bonds. Thus, in some instances, the Table A2 also contains H-bond interactions.
# [1] = Table A5-1 pharmacophore: distance between elements, S2/S1 region
# [2] = Table A7-1, between pharmacophore elements of the bound compound
# [3] = Table A8-6, nearest protein atom in cell to the left
# Chain of MASP-2 CCP2-SP (O00187 445-686): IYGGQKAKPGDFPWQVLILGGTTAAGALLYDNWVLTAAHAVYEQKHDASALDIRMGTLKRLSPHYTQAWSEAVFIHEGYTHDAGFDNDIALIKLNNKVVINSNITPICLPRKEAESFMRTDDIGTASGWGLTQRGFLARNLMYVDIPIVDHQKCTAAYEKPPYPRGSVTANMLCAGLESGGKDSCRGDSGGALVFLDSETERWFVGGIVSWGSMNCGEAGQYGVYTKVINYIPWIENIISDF
# Chain of MASP-2 CCP2-SP (O00187 364-432 partner): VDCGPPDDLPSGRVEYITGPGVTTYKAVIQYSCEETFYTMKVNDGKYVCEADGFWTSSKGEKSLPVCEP
smiles,measurement,setting,value
"Cc1nc(N)ccc1CNC(=O)[C@H](C)NC(=O)[C@H]1C[C@@H](Cc2ccccc2)CCN1 [compound 1353, (2R,4S)—N—((S)-1-(((6-Amino-2-methylpyridin-3-yl)methyl)amino)-1-oxopropan-2-yl)-4-benzylpiperidine-2-carboxamide]",H-bond distance to MASP-2 ASP 627 atom OD2,"Table A1 (H-Bonds), ASP 627 OD2",3.17
same,H-bond distance to MASP-2 GLY 656 atom N,"Table A1 (H-Bonds), GLY 656 N",3.15
same,H-bond distance to MASP-2 GLY 656 atom O,"Table A1 (H-Bonds), GLY 656 O",2.85
same,H-bond distance to MASP-2 SER 654 atom O,"Table A1 (H-Bonds), SER 654 O",3
same,H-bond distance to MASP-2 SER 657 atom O,"Table A1 (H-Bonds), SER 657 O",2.91
same,"van der Waals contact distance, MASP-2 HIS 483 atom CD2",Table A2-1,3.77
same,"van der Waals contact distance, MASP-2 HIS 483 atom NE2",Table A2-1,3.67
same,"van der Waals contact distance, MASP-2 PHE 529 atom CD2",Table A2-3,3.68
same,"van der Waals contact distance, MASP-2 TYR 607 atom CD1",Table A2-4,3.75
same,"van der Waals contact distance, MASP-2 amino acid atom to compound atom","Table A2-7: SER 628 (CB, O, OG)",3.66
same,"van der Waals contact distance, MASP-2 amino acid atom to compound atom","Table A2-9, ARG 630, AA atoms CG, CZ",3.74
same,"van der Waals contact distance, VAL 653 CG1 to compound atom",Table A2-11,3.3
same,"van der Waals contact distance, TRP 655 CA to compound atom",Table A2-12,3.3
same,"Ligand-pharmacophore element distance, pharmacophore element C2",,0.58
same,"Ligand-pharmacophore element distance, pharmacophore element C3",,0.13
same,"Ligand-pharmacophore element distance, pharmacophore element C4",,0
same,"Ligand-pharmacophore element distance, pharmacophore element C5",,0
same,"Ligand-pharmacophore element distance, pharmacophore element C6",,0
same,"Ligand-pharmacophore element distance, pharmacophore element C7",,0
same,"Ligand-pharmacophore element distance, pharmacophore element CA1",,0.61
same,"Ligand-pharmacophore element distance, pharmacophore element CA2",,0.5
same,"Ligand-pharmacophore element distance, pharmacophore element CA3",,0
same,"Ligand-pharmacophore element distance, pharmacophore element CA4",,0
same,"Ligand-pharmacophore element distance, pharmacophore element CA5",,0
same,"Ligand-pharmacophore element distance, pharmacophore element CA6",,0
same,"d(C3,CA1)",[1],2.85
same,"d(CA1,N1)2",[1],1.36
same,"d(CA1,O1)",[1],4.38
same,"d(CA1,O2)",[1],3.79
same,"d(H4,O1)",[1],4.38
same,"d(H4,O2)",[1],3.72
same,"d(O1,O2)",[1],3.27
same,"d(N2,C2)",,1.45
same,"d(N2,CA2)",,6.50
same,"d(O2,H3)",,4.10
same,"d(O2,N2)",,2.69
same,"a(C3, CA1, O1)",Table A6-1 pharmacophore angle,149.99
same,"a(CA1, O1, O2)",Table A6-1 pharmacophore angle,103.61
same,"a(O1, O2, H4)",Table A6-1 pharmacophore angle,133.22
same,"a(N1, CA1, O1) b)","Table A6-1 pharmacophore angle, Methyl-amino-pyridine compounds",173.73
same,"a(O1, O2, H3)",Table A6-2 pharmacophore angle,146.74
same,"a(O1, O2, N2)",Table A6-2 pharmacophore angle,137.66
same,"a(O2, N2, C2)",Table A6-2 pharmacophore angle,130.69
same,"a(O2, N2, CA2)",Table A6-2 pharmacophore angle,157.19
same,"Pharmacophore torsion angle a(C3, CA1, O1, H4)",[2],23.38
same,"Pharmacophore torsion angle a(H4, O1, O2, H3)",[2],51.34
same,"Pharmacophore torsion angle a(H4, O1, O2, N2)",[2],136.30
same,"Pharmacophore torsion angle a(N1, CA1, O1, H4)",[2],3.14
same,"Pharmacophore torsion angle a(O1, H4, O2, CA1)",[2],−84.72
same,"Pharmacophore torsion angle a(O1, O2, N2, C2)",[2],126.15
same,"Pharmacophore torsion angle a(O1, O2, N2, CA2)","Table A7-2, between pharmacophore elements of the bound compound",120.30
C[C@H](NC(=O)[C@H](N)CCCc1ccccc1)C(=O)NCc1ccc(C(=N)N)cc1.Cl.Cl [1042_3],"Ligand-pharmacophore element distance, pharmacophore element C2",,2.05
same,"Ligand-pharmacophore element distance, pharmacophore element C3",,0
same,"Ligand-pharmacophore element distance, pharmacophore element C4",,0
same,"Ligand-pharmacophore element distance, pharmacophore element C5",,0
same,"Ligand-pharmacophore element distance, pharmacophore element C6",,0
same,"Ligand-pharmacophore element distance, pharmacophore element C7",,0
same,"Ligand-pharmacophore element distance, pharmacophore element CA1",,0.5
same,"Ligand-pharmacophore element distance, pharmacophore element CA2",,1.65
same,"Ligand-pharmacophore element distance, pharmacophore element CA3",,0
same,"Ligand-pharmacophore element distance, pharmacophore element CA4",,0
same,"Ligand-pharmacophore element distance, pharmacophore element CA5",,0
same,"Ligand-pharmacophore element distance, pharmacophore element CA6",,0
same,"d(CA1,N1)",[1],3.63
same,"d(CA1,O2)",[1],4.54
same,"d(H4,O2)",[1],4.90
same,"d(N2,C2)",,3.55
same,"d(N2,CA2)",,6.60
same,"d(O2,H3)",,6.75
same,"d(O2,N2)",,4.11
same,"a(O2, N2, C2)",Table A6-2 pharmacophore angle,129.44
same,"a(O2, N2, CA2)",Table A6-2 pharmacophore angle,145.75
same,Pharmacophore protein distance to MET_658 (first MET_658 column),"Table A8-6, 6th residue column, nearest protein atom in cell to the left",2.74
same,Pharmacophore protein distance to MET_658 (second MET_658 column),"Table A8-6, 9th residue column, nearest protein atom in cell to the left",4.20
same,Pharmacophore protein distance to GLY_528,[3],2.99
same,Pharmacophore protein distance to PHE_529,[3],2.42
same,Pharmacophore protein distance to PRO_608,[3],4.06
same,Pharmacophore protein distance to SER_611,[3],2.32
same,Pharmacophore protein distance to TRP_655,"Table A8-6, pharmacophore elements C6, CA3, O3, H1, nearest protein atom in cell to the left",3.21
